# In patent US20250295648A1 (priority 2024, published 2025):
# “And” between values parts separate entries of the source, which are not always exact repeats. Identical values can stand only once.
# Columns and labels:
# [1] = system: L-DOPA-induced dyskinesia in Parkinson's disease patients; test: Unified Dyskinesia Rating Scale (UDysRS) after 150% L-DOPA challenge; conditions: for UDysRS Parts 3 + 4, highest score of assessment sessions, mean change from baseline / UDysRS Part 3 sum of items, average of assessment sessions, mean change from baseline / UDysRS Part 3 sum of items, highest score of assessment sessions, mean change from baseline / UDysRS Parts 3 + 4, average of assessment sessions, mean change from baseline / UDysRS Total (Parts 1 to 4), average of assessment sessions, mean change from baseline / UDysRS Total (Parts 1 to 4), highest score of assessment sessions, mean change from baseline: per-protocol set; for UDysRS Part 3 sum of items, average of assessment sessions, mean change from baseline: p < 0.05 vs placebo
# Description: Patients were rated for dyskinesia at baseline and on days 28 (at end of up-titration period) and 42 (end of stable dosing period). Because the level of dyskinesia experienced by patients can vary over time, they were given 150% (i.e., 1.5×) of their regular L-DOPA dose (up to a maximum of 250 mg) as a challenge 30 min before each dyskinesia assessment to improve comparability between patients and between visits. Patients were filmed 30, 60 and 90 min after dosing with L-DOPA (˜5 min of filming each time). LID was assessed using the Unified Dyskinesia Rating Scale (UDysRS). Changes from baseline are shown for total score (i.e., Parts 1 to 4), for total objective score (i.e., Parts 3+4), and for the sum of Part 3 objective impairment assessment scores. Because objective LID assessment was carried out at 3 time-points (30, 60 and 90 min) following L-DOPA challenge, the above parameters were analyzed based on the most severe of the three scores as well as on the average score of the 3 time points.
# The patient took 150% of their normal L-DOPA dose 30 minutes prior to the start of efficacy assessments (UDysRS) at Day 1 (Visit 2), Day 28 (Visit 6) and Day 42 (Visit 7).
# The UDysRS is a rating instrument designed to assess the core features of dyskinesia in Parkinson's Disease. The UDysRS consists of 4 parts: • r. Part I, historical disability with regard to the patient's perceptions of the impact on activities of ADL of on-dyskinesia. • s. Part II, historical disability with regard to the patient's perceptions of the impact on ADL of off-dystonia. • t. Part III, objective impairment, which assesses severity of dyskinesia, affected body parts, and type of impairment (choreic vs. dystonic). • u. Part IV, objective disability, based on an evaluation of Part III activities.
# Each item in the UDysRS is scored from 0 to 4, with a possible maximum total score of 104.
# The UDysRS assessment would be performed at baseline (Day 1, Visit 2), Day 28 and Day 42 (Visits 6 and 7) starting approximately 30 minutes after the L-DOPA challenge on these days.
# The data for all 3 assessments performed at each visit would be entered in the eCRF and the Investigator will highlight which of the assessments, corresponding to the assessment where the patient had most severe dyskinesia, that would be used in the descriptive summaries of data.
# Change from baseline in the UDysRS total score to Visit 6 (Day 28) and Visit 7 (Day 42) respectively would be summarized using descriptive statistics. […] The same analysis would be done for UDysRS total objective score Part III and IV only.
# The baseline value of the dependent variable has been included in the model as a continuous covariate.
# [2] = system: PD patients with LID; test: King's Parkinson's Disease Pain Scale (KPPS); assay type: in vivo, human; conditions: for KPPS, mean change from baseline: per-protocol set, p < 0.01 vs baseline
# Text: The KPPS is a rater-interview-based scale conducted with the patient and caregiver (if available). It is a 14-item scale covering 7 domains of pain: • z. Musculoskeletal pain • aa. Chronic pain • bb. Fluctuation-related pain • cc. Nocturnal pain • dd. Orofacial pain • ee. Edema/swelling; discoloration • ff. Radicular pain Each item is scored by severity (0-3; none to very severe) multiplied by frequency (0-4; never to all the time), for an item sub score of 0-12, resulting in a total score from 0 to 168. Ratings are based on the previous month, or in the case of this study, the intervening period since the previous clinic visit (about 3 weeks). Treatment effects would be analyzed as change from baseline for total score and for individual pain domains.
# [3] = Visit 6 Clinic Efficacy Visit (Day 28), per protocol analysis set, N = 15
# [4] = Visit 7 Clinic Efficacy Visit (Day 42), per protocol analysis set, N = 15
# [5] = days 28 and 42, within NLX-112 group
# [6] = individual patients A-E co-treated with amantadine
# [7] = per-protocol set (n = 15), Baseline
# [8] = Δ D 28 (end of up-titration), p < 0.01 vs baseline
# [9] = Δ D 42 (end of stable dosing), p < 0.001 vs baseline
# [10] = Δ D 42 (end of stable dosing), p < 0.01 vs baseline
structure (smiles),measurement,setting,value
"Cc1ccc(CNCC2(F)CCN(C(=O)c3ccc(F)c(Cl)c3)CC2)nc1 [NLX-112, (3-chloro-4-fluoro-phenyl)-[4-fluoro-4-{[(5-methyl-pyridin-2-ylmethyl)-amino]-methyl}piperidin-1-yl]methanone]","UDysRS Parts 1, 2, 3, and 4 average, absolute change from baseline, median",[1]; [3],−3.00
same,"UDysRS Parts 1, 2, 3, and 4 average, collected value, mean",[1]; [3],25.33
same,"UDysRS Parts 1, 2, 3, and 4 average, collected value, median",[1]; [3],25.33
same,"UDysRS Parts 1, 2, 3, and 4 average, relative change from baseline (%), mean",[1]; [3],−9.33%
same,"UDysRS Parts 1, 2, 3, and 4 average, relative change from baseline (%), median",[1]; [3],−10.6%
same,"UDysRS Parts 1, 2, 3, and 4 most severe, absolute change from baseline, mean",[1]; [3],−4.1
same,"UDysRS Parts 1, 2, 3, and 4 most severe, absolute change from baseline, median",[1]; [3],−2.0
same,"UDysRS Parts 1, 2, 3, and 4 most severe, collected value, mean",[1]; [3],27.5
same,"UDysRS Parts 1, 2, 3, and 4 most severe, collected value, median",[1]; [3],28.0
same,"UDysRS Parts 1, 2, 3, and 4 most severe, relative change from baseline (%), mean",[1]; [3],−10.2%
same,"UDysRS Parts 1, 2, 3, and 4 most severe, relative change from baseline (%), median",[1]; [3],−6.45%
same,"UDysRS Parts 3 and 4 average, absolute change from baseline, mean",[1]; [3],−2.49
same,"UDysRS Parts 3 and 4 average, absolute change from baseline, median",[1]; [3],−1.67
same,"UDysRS Parts 3 and 4 average, collected value, mean",[1]; [3],11.60
same,"UDysRS Parts 3 and 4 average, collected value, median",[1]; [3],10.33
same,"UDysRS Parts 3 and 4 average, relative change from baseline (%), mean",[1]; [3],−17.3%
same,"UDysRS Parts 3 and 4 average, relative change from baseline (%), median",[1]; [3],−20.0%
same,"UDysRS Parts 3 and 4 most severe, absolute change from baseline, mean",[1]; [3],−1.7
same,"UDysRS Parts 3 and 4 most severe, absolute change from baseline, median",[1]; [3],−1.0
same,"UDysRS Parts 3 and 4 most severe, collected value, mean",[1]; [3],13.8
same,"UDysRS Parts 3 and 4 most severe, collected value, median",[1]; [3],12.0
same,"UDysRS Parts 3 and 4 most severe, relative change from baseline (%), mean",[1]; [3],−15.8%
same,"UDysRS Parts 3 and 4 most severe, relative change from baseline (%), median",[1]; [3],−8.33%
same,"UDysRS Parts 1, 2, 3, and 4 average, absolute change from baseline, mean",[1]; [4],−6.51
same,"UDysRS Parts 1, 2, 3, and 4 average, absolute change from baseline, median",[1]; [4],−7.67
same,"UDysRS Parts 1, 2, 3, and 4 average, collected value, mean",[1]; [4],23.64
same,"UDysRS Parts 1, 2, 3, and 4 average, collected value, median",[1]; [4],23.00
same,"UDysRS Parts 1, 2, 3, and 4 average, relative change from baseline (%), mean",[1]; [4],−19.5%
same,"UDysRS Parts 1, 2, 3, and 4 average, relative change from baseline (%), median",[1]; [4],−21.9%
same,"UDysRS Parts 1, 2, 3, and 4 most severe, absolute change from baseline, mean",[1]; [4],−6.3
same,"UDysRS Parts 1, 2, 3, and 4 most severe, absolute change from baseline, median",[1]; [4],−8.0
same,"UDysRS Parts 1, 2, 3, and 4 most severe, collected value, mean",[1]; [4],25.3
same,"UDysRS Parts 1, 2, 3, and 4 most severe, collected value, median",[1]; [4],24.0
same,"UDysRS Parts 1, 2, 3, and 4 most severe, relative change from baseline (%), mean",[1]; [4],−19.0%
same,"UDysRS Parts 1, 2, 3, and 4 most severe, relative change from baseline (%), median",[1]; [4],−25.8%
same,"UDysRS Parts 3 and 4 average, absolute change from baseline, mean",[1]; [4],−3.31
same,"UDysRS Parts 3 and 4 average, absolute change from baseline, median",[1]; [4],−3.33
same,"UDysRS Parts 3 and 4 average, collected value, mean",[1]; [4],10.78
same,"UDysRS Parts 3 and 4 average, collected value, median",[1]; [4],9.67
same,"UDysRS Parts 3 and 4 average, relative change from baseline (%), mean",[1]; [4],−25.3%
same,"UDysRS Parts 3 and 4 average, relative change from baseline (%), median",[1]; [4],−31.5%
same,"UDysRS Parts 3 and 4 most severe, absolute change from baseline, mean",[1]; [4],−3.1
same,"UDysRS Parts 3 and 4 most severe, absolute change from baseline, median",[1]; [4],−4.0
same,"UDysRS Parts 3 and 4 most severe, collected value, mean",[1]; [4],12.4
same,"UDysRS Parts 3 and 4 most severe, collected value, median",[1]; [4],11.0
same,"UDysRS Parts 3 and 4 most severe, relative change from baseline (%), mean",[1]; [4],−21.0%
same,"UDysRS Parts 3 and 4 most severe, relative change from baseline (%), median",[1]; [4],−31.6%
same,"UDysRS sum of Part 3 items, average of all 3 assessments, NLX-112 vs placebo",[1]; day 28 and day 42,significantly greater change from baseline
same,"net reduction in UDysRS total score, more than placebo",[1]; day 42,3.9 points
same,"UDysRS sum of Part 3 items, most severe assessment, vs baseline",[1]; [5],significant reduction
same,"UDysRS total score based on the average of 3 assessments, vs baseline",[1]; [5],significant reduction
same,"UDysRS Part 3 + 4, Δ from baseline",[1]; [6],+3 and +2 and −11 and −6 (2×)
same,"UDysRS Total, Δ from baseline",[1]; [6],−2 and +7 and −11 and −8 and −6
same,amantadine-using patients with numerical reductions in UDysRS total score and total objective score,[1]; of the 5 amantadine-using patients on NLX-112,3
same,"UDysRS Part 3 sum of items, average of assessment sessions, mean",[1]; [7],21.5
same,"UDysRS Part 3 sum of items, highest score of assessment sessions, mean",[1]; [7],24.7
same,"UDysRS Parts 3 + 4, average of assessment sessions, mean",[1]; [7],14.1
same,"UDysRS Parts 3 + 4, highest score of assessment sessions, mean",[1]; [7],15.5
same,"UDysRS Total (Parts 1 to 4), average of assessment sessions, mean",[1]; [7],30.1
same,"UDysRS Total (Parts 1 to 4), highest score of assessment sessions, mean",[1]; [7],31.6
same,"UDysRS Parts 3 + 4, highest score of assessment sessions, mean change from baseline",[1]; Δ D 28 (end of up-titration),−1.7
same,"UDysRS Part 3 sum of items, average of assessment sessions, mean change from baseline","[1]; Δ D 28 (end of up-titration), p < 0.001 vs baseline",−5.5
same,"UDysRS Part 3 sum of items, highest score of assessment sessions, mean change from baseline",[1]; [8],−5.5
same,"UDysRS Parts 3 + 4, average of assessment sessions, mean change from baseline",[1]; [8],−2.5
same,"UDysRS Total (Parts 1 to 4), average of assessment sessions, mean change from baseline",[1]; [8],−4.8
same,"UDysRS Total (Parts 1 to 4), highest score of assessment sessions, mean change from baseline","[1]; Δ D 28 (end of up-titration), p < 0.05 vs baseline",−4.1
same,"UDysRS Part 3 sum of items, average of assessment sessions, mean change from baseline","[1]; Δ D 42 (end of stable dosing), p < 0.0001 vs baseline",−7.1
same,"UDysRS Part 3 sum of items, highest score of assessment sessions, mean change from baseline",[1]; [9],−7.8
same,"UDysRS Parts 3 + 4, average of assessment sessions, mean change from baseline",[1]; [9],−3.3
same,"UDysRS Total (Parts 1 to 4), average of assessment sessions, mean change from baseline",[1]; [9],−6.5
same,"UDysRS Parts 3 + 4, highest score of assessment sessions, mean change from baseline",[1]; [10],−3.1
same,"UDysRS Total (Parts 1 to 4), highest score of assessment sessions, mean change from baseline",[1]; [10],−6.3
same,"KPPS total score (reported pain), change from baseline","[2]; Day 42, also seen with placebo",statistically significant improvement
same,"KPPS, mean",[2]; [7],16.0
same,"KPPS, mean change from baseline",[2]; Δ D 28 (end of up-titration),−4.6
same,"KPPS, mean change from baseline",[2]; Δ D 42 (end of stable dosing),−4.8
